Data taken from publication PMC3765866, “Identification of novel PTPRQ phosphatase inhibitors based on the virtual screening with docking simulations” (Theoretical Biology & Medical Modelling, 2013).
Like-named read-outs stand apart in the source and are kept apart here.

Experiments:
Type in all cases: biochemical
PTPRQ [1] = target: T1, PTPRQ (Homo sapiens, UniProt Q9UMZ3); experiment: PTPRQ enzyme inhibition assay monitoring hydrolysis of pNPP; details: for inhibition at 100 µM: inhibitor 100 μM, duplicates
T1 construct: The catalytic domain of PTPRQ (PTPRQ-C, residues 2661–2948) was subcloned into pET28a; His tag; made in house; host or cells: Escherichia coli BL21 (DE3)
T1 sequence (Q9UMZ3 2015-2302 limits assumed): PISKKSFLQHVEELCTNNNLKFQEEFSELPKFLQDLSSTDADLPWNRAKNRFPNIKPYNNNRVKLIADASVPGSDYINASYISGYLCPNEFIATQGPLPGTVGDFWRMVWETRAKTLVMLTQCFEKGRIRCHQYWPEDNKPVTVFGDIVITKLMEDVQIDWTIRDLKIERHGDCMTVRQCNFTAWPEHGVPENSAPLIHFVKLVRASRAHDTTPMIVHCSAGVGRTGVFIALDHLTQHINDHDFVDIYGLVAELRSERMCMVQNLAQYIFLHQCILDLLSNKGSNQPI
Procedure: The catalytic domain of PTPRQ (PTPRQ-C, residues 2661–2948) was subcloned into pET28a and overexpressed using Escherichia coli BL21 (DE3) strain. Cells were grown at 291 K after induction with 0.1 mM IPTG for 20 hours. His-tagged PTPRQ-C was purified by nickel-affinity chromatography. 150 compounds selected from the precedent virtual screening were evaluated for their in vitro inhibitory activity against the recombinant human PTPRQ. Initial inhibitor screening was performed by monitoring the extent of hydrolysis of p-Nitrophenyl Phosphate (pNPP) with a […] assay. The purified PTPRQ-C (1.5 μM), pNPP (5 mM), and a candidate inhibitor were incubated in the reaction mixture containing 50 mM Bis-Tris (pH 6.0), 2 mM dithiothreitol for 60 minutes. This enzymatic reaction was stopped with the addition of sodium hydroxide (0.5 M). The phosphatase activities were then checked by the absorbance changes due to the hydrolysis of the substrate at 405 nm. IC50 values of the inhibitors were determined from direct regression curve analysis.

[2] = target: T2, PTP receptor type O (PTPRO) (Homo sapiens, UniProt Q16827); experiment: Selectivity inhibition assay against PTPRO; details: read-out: % inhibition at 100 μM for PTPRO
T2 sequence (Q16827 30-1216): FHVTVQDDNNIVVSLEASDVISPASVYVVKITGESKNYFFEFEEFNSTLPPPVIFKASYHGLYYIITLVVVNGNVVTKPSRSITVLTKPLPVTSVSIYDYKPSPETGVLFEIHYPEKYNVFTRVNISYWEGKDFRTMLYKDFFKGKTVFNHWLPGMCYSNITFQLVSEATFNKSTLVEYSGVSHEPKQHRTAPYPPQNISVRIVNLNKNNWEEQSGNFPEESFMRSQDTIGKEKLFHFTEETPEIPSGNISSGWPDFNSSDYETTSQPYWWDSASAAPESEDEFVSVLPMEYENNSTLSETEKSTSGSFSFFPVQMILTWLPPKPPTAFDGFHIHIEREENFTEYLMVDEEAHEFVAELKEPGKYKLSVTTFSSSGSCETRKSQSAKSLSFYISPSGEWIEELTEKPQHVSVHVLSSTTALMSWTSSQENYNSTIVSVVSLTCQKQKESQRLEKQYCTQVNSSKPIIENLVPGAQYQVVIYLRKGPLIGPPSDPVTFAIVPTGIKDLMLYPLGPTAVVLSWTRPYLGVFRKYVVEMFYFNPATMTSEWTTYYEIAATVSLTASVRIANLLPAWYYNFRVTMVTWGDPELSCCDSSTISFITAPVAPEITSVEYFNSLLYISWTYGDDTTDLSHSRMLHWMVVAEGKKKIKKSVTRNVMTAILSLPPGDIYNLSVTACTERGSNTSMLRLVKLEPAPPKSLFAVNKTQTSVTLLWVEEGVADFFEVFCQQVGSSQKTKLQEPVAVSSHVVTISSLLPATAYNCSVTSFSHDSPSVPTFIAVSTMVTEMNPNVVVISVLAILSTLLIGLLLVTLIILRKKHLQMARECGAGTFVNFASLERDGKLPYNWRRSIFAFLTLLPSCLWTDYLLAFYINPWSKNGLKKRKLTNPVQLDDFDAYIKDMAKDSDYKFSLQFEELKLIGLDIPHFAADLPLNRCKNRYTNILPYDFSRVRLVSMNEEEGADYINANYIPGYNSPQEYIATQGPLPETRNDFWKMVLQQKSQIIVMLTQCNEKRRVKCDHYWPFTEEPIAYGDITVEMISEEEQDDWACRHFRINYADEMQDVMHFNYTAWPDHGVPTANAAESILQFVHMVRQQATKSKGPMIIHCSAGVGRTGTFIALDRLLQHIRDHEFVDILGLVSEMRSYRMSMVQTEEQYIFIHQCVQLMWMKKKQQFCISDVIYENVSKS
Procedure: Because the selectivity has been one of the most important issues in the development of phosphatase inhibitors, we compared the inhibitory activities of 1–6 for PTPRQ to those for its homologous protein, PTP receptor type O (PTPRO). These inhibition assays for selectivity were done in duplicates at the inhibitor concentration of 100 μM. […] The simultaneous inhibitions of PTPRQ and PTPRO by 1–6 are actually not surprising because they share a highly conserved catalytic module. To obtain the specific inhibitors for PTPRQ, therefore, it seems that some chemical groups should be added to 1–6 in such a way that the resulting derivatives can be stabilized not only in the active site but also in other peripheral binding pockets.

PTPRQ [3] = target: T1, PTPRQ; experiment: Inhibition of hydrolysis of PI(3,4,5)P3 by PTPRQ (malachite green); details: 1.5 μM PTPRQ-C, 300 μM PI(3,4,5)P3, 100 μM inhibitor
Procedure: Six PTPRQ inhibitors identified under the above reaction conditions were further investigated using PI(3,4,5)P3 as the substrate (Cayman Chemical). The enzymatic activity of PTPRQ was measured in 80 μL reaction mixture containing 50 mM Tris–HCl (pH 6.0), 10 mM dithiothreitol, 300 μM PI(3,4,5)P3, 100 μM inhibitor, and 1.5 μM of the purified catalytic domain of PTPRQ. The mixture was incubated for 60 minutes at 310 K, and the enzymatic reaction was stopped by the addition of 20 μL of malachite green/ammonium molybdate reagent (Bioassay systems). The absorbance was measured at 650 nm using a plate reader.

[4] = pNPP 5 mM substrate, 1.5 μM PTPRQ-C, pH 6.0, 60 minutes, read-out: IC50 against PTPRQ

Row | Structure (SMILES) | inhibition at 100 µM (PTPRQ [1]) | IC50 (PTPRQ [1]; [4]) | inhibition at 100 µM ([2]; inhibitor 100 μM, duplicates) | inhibitory activity against the hydrolysis of PI(3,4,5)P3 by PTPRQ (PTPRQ [3]) | IC50 (PTPRQ [1]) | inhibition at 100 µM [2]
1 | COc1cccc(-c2nn(-c3ccccc3)cc2/C=C2\SC(=S)N(CCC(=O)O)C2=O)c1 [Compound 4] | 82.6 ± 0.2% | 44.8 µM | 95 ± 3.5% | – | – | –
2 | O=C(O)CCN1C(=O)/C(=C\c2cccc(Oc3ccccc3)c2)SC1=S [Compound 5] | 62.5 ± 1.6% | 65.3 µM | 95 ± 0.8% | – | – | –
3 | CN1C(=O)/C(=C/c2ccc(OCc3cccc([N+](=O)[O-])c3)cc2)S/C1=N/c1cccc(C(=O)O)c1 [Compound 3] | 50.9 ± 2.2% | 63.8 µM | 48.7 ± 2.1% | effect of reducing PTPRQ activity | – | –
4 | O=C1NC(=S)S/C1=C\c1cn(-c2ccccc2)nc1-c1ccccc1 [Compound 2] | 57.7 ± 0.4% | 85.7 µM | 94.2 ± 1.5% | significant inhibitory activity | – | –
5 | COC(=O)c1cccc(-c2ccc(/C=C3\C(=O)N(c4cccc(C(=O)O)c4)N=C3C)o2)c1 [Compound 6] | 57 ± 2.1% | 73.1 µM | 81.2 ± 0.9% | effect of reducing PTPRQ activity | – | –
6 | CCOC(=O)Cn1cc(/C=C2/C(=O)NC(=O)N(c3cc(C)cc(C)c3)C2=O)c2ccccc21 [Compound 1] | 71.1 ± 0.8% | – | – | significant inhibitory activity | 29.9 µM | 94.4 ± 0.5%
